Experimental data reported in patent EP0457318B1, “Alpha-Oxopyrrolo[2,3-b]indole acetic acids, esters, amides and related analogs, a process for their preparation and their use as medicaments” (HOECHST-ROUSSEL PHARMACEUTICALS INCORPORATED, priority 1990, dated 1991).
Like-named read-outs stand apart in the source and are kept apart here.

What was measured:
Brain AChE = target: T1, Brain AChE (Rattus norvegicus, UniProt P37136); test: In vitro inhibition of acetylcholinesterase activity in rat striatum (modified Ellman method); assay type: biochemical
T1 construct: corpora striata dissected free, weighed and homogenized in 19 volumes; from tissue; host or cells: rat corpora striata homogenate (male Wistar rats)
T1 sequence (P37136 32-614): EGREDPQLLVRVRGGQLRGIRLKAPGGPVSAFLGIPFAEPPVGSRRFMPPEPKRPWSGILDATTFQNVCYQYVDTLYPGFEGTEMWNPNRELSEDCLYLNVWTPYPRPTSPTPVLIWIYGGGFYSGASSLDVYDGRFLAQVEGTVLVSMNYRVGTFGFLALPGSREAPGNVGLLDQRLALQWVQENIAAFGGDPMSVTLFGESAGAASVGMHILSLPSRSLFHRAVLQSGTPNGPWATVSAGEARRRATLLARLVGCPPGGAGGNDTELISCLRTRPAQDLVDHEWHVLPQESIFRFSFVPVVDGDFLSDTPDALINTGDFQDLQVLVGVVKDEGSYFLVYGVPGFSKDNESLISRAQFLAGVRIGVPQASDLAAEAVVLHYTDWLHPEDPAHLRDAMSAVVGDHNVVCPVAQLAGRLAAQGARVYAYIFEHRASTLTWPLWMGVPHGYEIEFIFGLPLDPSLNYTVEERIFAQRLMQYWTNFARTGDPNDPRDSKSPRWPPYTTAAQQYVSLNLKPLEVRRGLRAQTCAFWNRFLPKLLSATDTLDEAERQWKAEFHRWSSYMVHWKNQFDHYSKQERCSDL
From the text: Cholinesterases are found throughout the body, both in the brain and in serum. However, only brain acetylcholinesterase (AChE) distribution is correlated with central cholinergic innervation. […] We have determined in vitro inhibition of acetylcholinesterase activity in rat striatum according to the method described below.
In Vitro Inhibition of Acetylcholinesterase Activity in Rat Striatum
The method described below was used in this invention for assaying anticholinesterase activity. This is a modification of the method of Ellman et al., Biochem. Pharmacol. 7, 88 (1961).
• 1. 0.05 M Phosphate buffer, pH 7.2 • (a) 6.85 g NaH2PO4·H2O/100 ml distilled H2O • (b) 13.40 g Na2HPO4·7H2O/100 ml distilled H2O • (c) add (a) to (b) until pH reaches 7.2 • (d) Dilute 1:10 • 2. Substrate in buffer • (a) 198 mg acetylthiocholine chloride (10 mM) • (b) q.s. to 100 ml with 0.05 M NaPO4, pH 7.2 (reagent 1) • 3. DTNB in buffer • (a) 19.8 mg 5,5-dithiobisnitrobenzoic acid (DTNB) (0.5 mM) • (b) q.s. to 100 ml with 0.05M NaPO4, pH 7.2 (reagent 1) • 4. A 2mM stock solution of the test drug is made up in a suitable solvent and q.s. to volume with 0.5 mM DTNB (reagent 3). Drugs are serially diluted (1:10) such that the final concentration (in cuvette) is 10^-4M and screened for activity. If active, IC50 values are determined from the inhibitory activity of subsequent concentrations.
Male Wistar rats are decapitated, brains rapidly removed, corpora striata dissected free, weighed and homogenized in 19 volumes (approximately 7 mg protein/ml) of 0.05 M phosphate buffer, pH 7.2 using a Potter-Elvehjem homogenizer. A 25 microliter aliquot of the homogenate is added to 1 ml of vehicle or various concentrations of the test drug and preincubated for 10 minutes at 37°C.
Enzyme activity is measured with the Beckman DU-50 spectrophotometer. This method can be used for IC50 determinations and for measuring kinetic constants.
Kinetics Soft-Pac Module #598273 (10) Program #6 Kindata: Source - Vis Wavelength - 412 nm Sipper - none Cuvettes - 2 ml cuvettes using auto 6-sampler Blank - 1 for each substrate concentration Interval time - 15 seconds (15 or 30 seconds for kinetics) Total time - 5 minutes (5 or 10 minutes for kinetics) Plot - yes Span - autoscale Slope - increasing Results - yes (gives slope) Factor - 1 […]
Blank values are determined for each run to control non enzymatic hydrolysis of substrate and these values are automatically substracted by the kindata program available on kinetics soft-pac module. This program also calculates the rate of absorbance change for each cuvette. […]
IC50 values are calculated from log-probit analysis.

[1] = test system: Scopolamine Induced Memory Deficit; test: Dark Avoidance Assay (reversal of scopolamine induced memory deficit); assay type: in vivo; details: mice, s.c., retest after 24 hours
Method: In this assay mice are tested for their ability to remember an unpleasant stimulus for a period of 24 hours. A mouse is placed in a chamber that contains a dark compartment; a strong incandescent light drives it to the dark compartment, where an electric shock is administered through metal plates on the floor. The animal is removed from the testing apparatus and tested again, 24 hours later, for the ability to remember the electric shock.
If scopolamine, an anticholinergic that is known to cause memory impairment, is administered before an animal's initial exposure to the test chamber, the animal re-enters the dark compartment shortly after being placed in the test chamber 24 hours later. This effect of scopolamine is blocked by an active test compound, resulting in a greater interval before re-entry into the dark compartment.
The results for an active compound are expressed as the percent of a group of animals in which the effect of scopolamine is blocked, as manifested by an increased interval between being placed in the test chamber and re-entering the dark compartment.

[2] = rat striatum homogenate, preincubated 10 minutes at 37°C, 5 mM acetylthiocholine, pH 7.2, read-out: Inhibitory Concentration (IC50) Brain AChE

**Q.** For `CN1CCC2(C)c3cc(C(=O)C(=O)OCc4ccccc4)ccc3N(C)C12` (stereo not drawn) [1,2,3,3a,8,8a-Hexahydro-α-oxo-1,3a,8-trimethyl-5-pyrrolo[2,3-b]indole acetic acid, phenylmethyl ester], which IC50 (Brain AChE; [2]) is on record?
**A.** Its IC50 is 4.4 µM.

**Q.** `Nc1c2c(nc3ccccc13)CCCC2` [Tacrine, reference compound] was tested. Which “% of Animals with Scopolamine Induced Memory Deficit Reversal” value (shortened to “% of Animals”) ([1]; dose 0.63 mg/kg of body weight) did it give?
**A.** The value was 13%.

**Q.** With `CCCCOC(=O)C(=O)c1ccc2c(c1)C1(C)CCN(C)C1N2C` (stereo not drawn) [1,2,3,3a,8,8a-Hexahydro-α-oxo-1,3a,8-trimethyl-5-pyrrolo[2,3-b]indole acetic acid, n-butyl ester] as the compound, how does the IC50 (Brain AChE; [2]) read?
**A.** Its IC50 is 5.7 µM.

**Q.** For `CC[C@@H]1C(=O)OC[C@@H]1Cc1cncn1C` [Pilocarpine, reference compound], which “% of Animals” value ([1]; dose 5.0 mg/kg of body weight) is on record?
**A.** Its value is 13%.

**Q.** With `CN1CCC2(C)c3cc(C(=O)C(=O)OCCc4ccccc4)ccc3N(C)C12` (stereo not drawn) [1,2,3,3a,8,8a-Hexahydro-α-oxo-1,3a,8-trimethyl-5-pyrrolo[2,3-b]indole acetic acid, phenylethyl ester] as the compound, how does the “% of Animals” value ([1]; dose 0.1 mg/kg of body weight) read?
**A.** The value was 29%.

**Q.** What about the “% of Animals” value ([1]; dose 0.3 mg/kg of body weight) of the same compound?
**A.** The value was 36%.

**Q.** What about the “% of Animals” value ([1]; dose 1.0 mg/kg of body weight) of the same compound?
**A.** Its value is 20%.

**Q.** What about the IC50 (Brain AChE) of the same compound?
**A.** The IC50 was 9.1 µM.

**Q.** With `CCCCCOC(=O)C(=O)c1ccc2c(c1)C1(C)CCN(C)C1N2C` (stereo not drawn) [1,2,3,3a,8,8a-Hexahydro-α-oxo-1,3a,8-trimethyl-5-pyrrolo[2,3-b]indole acetic acid, n-pentyl ester] as the compound, how does the IC50 (Brain AChE; [2]) read?
**A.** The IC50 was 8 µM.
